“Also recorded” adds a separate entry of the source. Like-named read-outs stand apart in the source and are kept apart here.
How the values were obtained:
HDAC6F H611A mutant = target: T1, HDAC6F H611A mutant (Homo sapiens, UniProt Q9UBN7, H611A); assay: in vitro deacetylase assay with [3H]-histones, HDAC6F H611A mutant; type: biochemical; conditions: [3H]-labeled histones, n=3
T1 construct: made in house; host or cells: TAg Jurkat cells, transient transfection, anti-FLAG M2 immunoprecipitation
Procedure: FLAG-tagged HDAC pBJ5 constructs were transiently transfected by electroporation with 5 μg DNA for expression of recombinant proteins (C. M. Grozinger, C. A. Hassig and S. L. Schreiber, Proc. Natl. Acad. Sci. USA, 27, 4868 (1999); and C. A. Hassig et al., Proc. Natl. Acad. Sci. USA 95, 3519 (1998)]. Cells were mock transfected without DNA or with a non-FLAG-tagged pCMV-LacZ construct as a negative control. Forty-eight hours after transfection recombinant proteins were immunoprecipitated using anti-FLAG M2 agarose affinity gel beads as described [C. A. Hassig et al., Proc. Natl. Acad. Sci. USA 95, 3519 (1998)]. Western blotting using anti-acetylated α-tubulin (1:1000) anti-tubulin (1:1000), and anti-acetylated (K9, K14) histone H3 (1:1000) antibodies was performed using standard methods (K. M. Koeller et al., Chemistry & Biology, 10 (5) (2003) pp. 397-410). […]
[^3H]Acetate-incorporated histones were isolated from butyrate-treated HeLa cells as described [J. Taunton, C. […] Immunoprecipitates were incubated with acetylated histones and HDAC activity determined by scintillation counting as described [J. Taunton, C. […] After centrifugation, the supernatant (diluted to 0.4 μg tubulin) and α-FLAG M2 agarose affinity gel beads were analyzed by western blotting with an anti-FLAG M2 antibody (1:1750) to ensure equal protein levels.

A549 cells = assay: cell cycle (BrdU labeling, FACS) and cell morphology; type: cell-based, human; conditions: for effect on cell cycle / DNA synthesis: FACS: 4 h, TSA 300 nM, tubacin 2 μM
Procedure: Bromodeoxyuridine labeling and fluorescence-activated cell sorting (FACS) were performed as described (K. M. Koeller et al., Chemistry & Biology, 10 (5) (2003) pp. 397-410). […] Samples were rinsed in PBS, trypsinized, and fixed for two hours in 70% ethanol/30% PBS (4° C.). Cells were then washed once in PBS and stored overnight in PBS (4° C.). To measure acetylated tubulin levels, samples were blocked for 45 minutes in ADB, aspirated, and incubated in ADB with anti-acetylated tubulin (1:500) overnight (4° C.). Samples were washed twice in ADB and incubated in ADB with FITC-conjugated anti-mouse IgG (goat; 1:200) for one hour (room temperature). After washing twice in TBS, cells were resuspended in 100 μL of ribonuclease A (100 μg/mL) and incubated for five minutes (37° C.). To measure the DNA content, 400 μL of propidium iodide (50 μg/mL) was added to the samples and incubated for one hour (room temperature). Samples were analyzed using a FACScanII flow cytometer (Becton-Dickinson), at the Dana Farber Cancer Institute, exciting at 488 nm and measuring the acetylated tubulin-linked FITC fluorescence through a 514 nm bandpass filter and the PI fluorescence through a 600 nm wave-length filter. Cell cycle distributions were calculated from 10,000 cells and modeled using ModFit LT (V2.0) software.

T1 sequence (Q9UBN7 whole entry H611A): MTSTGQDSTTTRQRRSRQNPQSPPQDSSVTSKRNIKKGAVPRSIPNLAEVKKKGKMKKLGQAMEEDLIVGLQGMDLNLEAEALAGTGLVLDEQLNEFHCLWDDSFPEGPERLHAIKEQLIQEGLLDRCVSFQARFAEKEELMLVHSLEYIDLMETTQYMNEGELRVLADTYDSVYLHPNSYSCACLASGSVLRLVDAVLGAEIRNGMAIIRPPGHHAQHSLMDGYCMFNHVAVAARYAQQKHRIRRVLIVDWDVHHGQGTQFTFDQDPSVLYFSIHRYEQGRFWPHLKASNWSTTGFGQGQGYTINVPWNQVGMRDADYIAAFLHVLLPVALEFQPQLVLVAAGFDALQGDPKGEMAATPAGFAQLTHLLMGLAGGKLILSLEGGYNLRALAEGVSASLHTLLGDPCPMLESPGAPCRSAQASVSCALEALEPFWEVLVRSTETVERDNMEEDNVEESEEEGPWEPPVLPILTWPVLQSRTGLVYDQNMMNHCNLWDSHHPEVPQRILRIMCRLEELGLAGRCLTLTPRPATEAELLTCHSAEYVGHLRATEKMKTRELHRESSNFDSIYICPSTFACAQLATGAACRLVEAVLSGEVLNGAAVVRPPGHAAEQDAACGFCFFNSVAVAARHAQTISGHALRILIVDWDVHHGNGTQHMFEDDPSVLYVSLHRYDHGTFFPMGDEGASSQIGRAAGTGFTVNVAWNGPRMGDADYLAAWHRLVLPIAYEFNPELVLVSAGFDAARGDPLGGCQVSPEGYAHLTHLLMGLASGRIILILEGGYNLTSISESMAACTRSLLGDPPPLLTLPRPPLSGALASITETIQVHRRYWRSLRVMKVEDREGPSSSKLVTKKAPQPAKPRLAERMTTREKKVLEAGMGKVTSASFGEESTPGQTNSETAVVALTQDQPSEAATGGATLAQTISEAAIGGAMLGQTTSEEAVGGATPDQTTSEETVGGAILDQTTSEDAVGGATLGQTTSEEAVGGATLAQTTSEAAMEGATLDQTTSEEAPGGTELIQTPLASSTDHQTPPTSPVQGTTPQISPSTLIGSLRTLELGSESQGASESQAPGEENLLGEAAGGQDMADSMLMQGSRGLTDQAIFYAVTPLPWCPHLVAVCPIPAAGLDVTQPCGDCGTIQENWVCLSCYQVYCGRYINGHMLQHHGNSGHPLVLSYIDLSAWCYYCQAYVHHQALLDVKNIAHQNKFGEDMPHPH

SMILES | inhibition of HDAC activity of HDAC6F H611A mutant (HDAC6F H611A mutant) | effect on cell cycle / DNA synthesis (A549 cells) | effect on cell morphology (A549 cells) | effect on cell cycle / DNA synthesis (A549 cells; listed as JCWII114) | effect on cell morphology (A549 cells; listed as JCWII114)
CC(/C=C/C(=O)NO)=C\[C@@H](C)C(=O)c1ccc(N(C)C)cc1 [TSA, trichostatin A, reference compound] | not inhibited by either TSA or tubacin | marked loss of a BrdU-positive S-phase population | – | – | –
O=C(CCCCCCC(=O)Nc1ccc([C@@H]2OC(c3ccc(CO)cc3)C[C@H](CSc3nc(-c4ccccc4)c(-c4ccccc4)o3)O2)cc1)NO (stereo partly shown) [tubacin] | not inhibited by either TSA or tubacin | No effect of tubacin on DNA synthesis or cell cycle distribution; also recorded: had no such effects | had no overall effect on the morphology of A549 cells | no apparent affect on the cell cycle or on cell morphology | no apparent affect on the cell cycle or on cell morphology
